In US20070059242A1, “METHODS TO IDENTIFY THERAPEUTIC AGENTS” (priority 2005, published 2007):
Like-named read-outs stand apart in the source and are kept apart here.

Legend:
[1] = system: vascular smooth muscle cell line (VSMC); experiment: LDH release cytotoxicity assay, VSMC; assay type: cell-based; details: Homo sapiens, 18 h
Description: Cytotoxicity assays. WI-L2 human B-lymphocyte line, HAAE-1 human abdominal aortic endothelial line, MH-S murine alveolar macrophage line, and J774A.1 murine tissue macrophage line were obtained from the ATCC. Human aortic endothelial cells (HAEC) and human vascular smooth muscle cells (VSMS) were obtained from Cambrex Bio Science. Jurkat E6-1T-lymphocytes were kindly provided by Dr. J. Kaye (The Scripps Research Institute). Cells were cultured in ATCC-recommended media with 10% fetal calf serum. Cells were incubated in a controlled atmosphere at 37° C., with 5 or 7% CO2. For lactate dehydrogenase (LDH) release assays, adherent cells were harvested either by addition of 0.05% trypsin/EDTA or by scraping. The cells obtained were seeded onto 96-well microtiter plates (25,000 cells/well) and allowed to recover for 24-48 h. […] Cytotoxicity was then determined by measuring lactate dehydrogenase (LDH) release from cells in culture. […] 100% Cytotoxicity was defined as the maximum amount of LDH released by dead cells as shown by trypan blue exclusion, or the highest amount of LDH detected upon lysis of cells by 0.9% Triton X-100. The IC50 values were determined by comparison of the raw duplicate data for concentration versus cytotoxicity (%) to non-linear regression analysis (Hill plot) using Graphpad v3.0 software for Macintosh. […]

[2] = system: J774A.1 murine tissue macrophage line; experiment: LDH release cytotoxicity assay, J774A.1; assay type: cell-based
Description: Cytotoxicity assays. WI-L2 human B-lymphocyte line, HAAE-1 human abdominal aortic endothelial line, MH-S murine alveolar macrophage line, and J774A.1 murine tissue macrophage line were obtained from the ATCC. Human aortic endothelial cells (HAEC) and human vascular smooth muscle cells (VSMS) were obtained from Cambrex Bio Science. Jurkat E6-1T-lymphocytes were kindly provided by Dr. J. Kaye (The Scripps Research Institute). Cells were cultured in ATCC-recommended media with 10% fetal calf serum. Cells were incubated in a controlled atmosphere at 37° C., with 5 or 7% CO2. For lactate dehydrogenase (LDH) release assays, adherent cells were harvested either by addition of 0.05% trypsin/EDTA or by scraping. The cells obtained were seeded onto 96-well microtiter plates (25,000 cells/well) and allowed to recover for 24-48 h. […] Cytotoxicity was then determined by measuring lactate dehydrogenase (LDH) release from cells in culture. […] 100% Cytotoxicity was defined as the maximum amount of LDH released by dead cells as shown by trypan blue exclusion, or the highest amount of LDH detected upon lysis of cells by 0.9% Triton X-100. The IC50 values were determined by comparison of the raw duplicate data for concentration versus cytotoxicity (%) to non-linear regression analysis (Hill plot) using Graphpad v3.0 software for Macintosh.

J774.1 macrophages = experiment: Lipid-loading assay (foam cell formation); assay type: cell-based, murine; details: J774.1, 72 h, LDL 100 μg/mL with or without compound 20 μM
Description: Lipid-loading assay (foam cell formation). J774.1 macrophages were incubated in ATCC-recommended media containing 10% fetal bovine serum under a controlled atmosphere of 5 or 7% CO2 at 37° C., in 8-well chamber slides. […] At termination, cells were washed twice with PBS (pH 7.4). The cells were then fixed with 6% (v/v) paraformaldehyde in PBS for 30 minutes, rinsed with propylene glycol for 2 minutes and lipids were stained with 5 mg/ml Oil Red 0 for 8 minutes. The cells were counterstained with Harris' hematoxylin for 45 seconds, and background staining was removed with 6% paraformaldehyde followed by washing once in PBS and once in tap water. Cover slips were mounted onto the glass slides using glycerol and the slide preparations were examined by light microscopy. The number of lipid-laden cells was scored out of a total of at least 100 cells counted in a single field in each slide, and expressed as a percentage of total cells. Photographs were taken at 100× magnification.

J774A.1 macrophages = experiment: Modified Boyden chamber migration (chemotaxis) assay; assay type: cell-based, murine; details: for recruitment (migration) of macrophages: 0-25 μM, 4 h
Description: Chemotaxis and invasion assays were performed using a modified Boyden chamber migration assay. Zwirner et al. (1998) Eur. J. Immunol. 28: 1570-77; Wilkinson (1988) Methods Enzymol. 162: 38-50. Assays were set up on MultiScreen-MIC plates (Millipore, Billerica, Mass., USA) with polyvinylpyrrolidone-free polycarbonate membranes (5 μm pore size). Cells (murine macrophage J774A.1) were washed and resuspended in serum-free DMEM containing 0.2% BSA at 1×10^6 cells/ml. Fifty microliters of cells were added to the upper wells and 150 μl of chemoattractant in DMEM/0.2% BSA were added to the lower wells of the microchamber. Incubation time was for 4 h at 37° C. in an 8% CO2 atmosphere. After swiping cells off the upper side of the membrane, cells on the lower side were visualized by either staining and phase contrast microscopy, or fluorescence. Cells that had adhered to the membrane were stained using a DiffQuik staining kit (Dade Behring, Newark, Del.). Each experiment was performed in triplicate and the numbers of migrating cells were counted in five fields at ×200. Cells harvested with PBS-EDTA for fluorescent labeling were washed two times with PBS, then resuspended in serum-free medium containing calcein AM (5 μM). Cells were incubated for 30 min (37° C., 5% CO2) with gentle intermittent mixing. Calcein-labeled cells were washed twice, and calcein fluorescence ([…]) was measured using a SPECTRAmax™ GEMINI dual-scanning microplate spectrofluorometer. Fluorescence measurements were compared to a standard curve, generated by dilution of cells in PBS/BSA in 100 μl, dispensed into 96-well plates. Fluorescence was quantified as described above.

[3] = system: U-937 monocytes on endothelial cell monolayers; experiment: Monocyte-endothelial cell-cell adhesion by fluorescence spectroscopy; assay type: cell-based; details: alone or in complex with LDL
[4] = complexed with native LDL (100 μg/ml)

| Structure (SMILES) | IC50 ([1]; LDH release, 0-100 μM, read-out: IC50) [µM] | IC50 ([2]; J774A.1, LDH release, 0-100 μM, 18 h, read-out: IC50) [µM] | lipid-loading of macrophages / foam cell formation (J774.1 macrophages) | recruitment (migration) of macrophages (J774A.1 macrophages) | migration of macrophages (J774A.1 macrophages; co-incubated with BSA) | migration of macrophages (J774A.1 macrophages; [4]) | adhesion of U-937 monocytes to endothelial cell monolayers, above that of LDL alone [3] | IC50 [1] [µM] | IC50 ([2]; Mus musculus, J774.A1, 18 h) [µM] |
| --- | --- | --- | --- | --- | --- | --- | --- | --- | --- |
| CC(C)CCC[C@@H](C)[C@H]1CCC2C(CC=O)C([C@@]3(C)CC[C@H](O)CC3=O)CC[C@@]21C (stereo partly drawn) [4a, 3β-Hydroxy-5-oxo-5,6-secocholestan-6-al] | 21.9 ± 2.2 | 15.6 ± 2.1 | began lipid-loading | stimulate dose-dependent recruitment of macrophages | macrophage migration still occurs | no significant migration | no significant increase in equilibrium binding of monocytes to endothelial cells |  |  |
| CC(C)CCC[C@@H](C)[C@H]1CCC2C3C(CC[C@@]21C)[C@@]1(C)CC[C@H](O)C[C@@]1(O)[C@@H]3C=O (stereo partly drawn) [5a, 3β-Hydroxy-5β-hydroxy-B-norcholestane-6β-carboxaldehyde] |  |  | began lipid-loading | stimulate dose-dependent recruitment of macrophages | macrophage migration still occurs | no significant migration | no significant increase in equilibrium binding of monocytes to endothelial cells | 29.8 ± 2.8 | 26.1 ± 2.8 |
